Measured values from US8609680B2, “2,3-dihydro-1H-inden-1-yl-2,7-diazaspiro[3.5] nonane derivatives” (Pfizer Inc., priority 2010, dated 2013).
Like-named read-outs stand apart in the source and are kept apart here.

Experiments:
[1] = biological target: T1, human GHSR1a (Homo sapiens, UniProt Q92847); test: Human Ghrelin SPA Binding Assay
T1 construct: expressed in transfected cells; host or cells: HEK293 Tetracycline-Inducible cell line, used as membranes
Description: The SPA format was utilized for high throughput screening of test compounds and filter binding served for more comprehensive binding characterization.
Human Ghrelin SPA Binding Assay

[2] = biological target: T1, human GHSR1a; test: Human Ghrelin Functional Assay (DELFIA GTP-binding assay); assay type: biochemical; conditions: GTP-Europium exchange, human GHSR1a membranes, with and without ghrelin at EC80
Description: Human Ghrelin Functional Assay
To measure the ability of test compounds in the present invention to modulate the activity of human GHSR1a (agonize, antagonize, partially agonize, inversely agonize), a DELFIA GTP-binding assay (Perkin Elmer, AD0260 and AD0261) is performed. The assay monitors the ligand-dependent exchange of GDP for GTP. GPCR activation results in an increase in fluorescence as receptor-bound GDP is replaced by Europium-labeled GTP.
Ghrelin functional assays are performed in a final volume of 39.5 μl containing 720 ng human GHSR1a (HEK293 Tetracycline-Inducible cell line expressing the human growth secretagogue receptor la, prepared as membranes), 9 nM GTP-Europium and varying concentrations of test compound or vehicle. To test for receptor antagonism, membranes are incubated in the presence of agonist ghrelin (Anaspec, 24158) at the EC80 concentration, plus test compound or vehicle.
Briefly, test compounds are prepared at room temperature in 384-well plates (Matrix, 4340). […] Samples are then transferred as 6 μl to 384-well filter plates (Pall, 5071) containing 30 μl of 24 μg/ml hGHSR1a membrane and 0.35 mg/ml saponin (Perkin Elmer, AD0261) in basal buffer.
The mixture is incubated 24 minutes at room temperature with gentle shaking, followed by the addition of 3.5 μl of 100 nM GTP-Europium in 50 mM HEPES, pH 7.4. Samples are shielded from light and incubated for 90 minutes further at room temperature with gentle shaking. The reactions are suctioned dry with vacuum, washed three times with 75 μl ice cold 1× GTP Wash Solution (Perkin Elmer, AD0261), and immediately read on the Envision 2101 Multilabel Reader (Perkin Elmer) using excitation filter 320 nm and emission filter 615 nm.

[3] = SPA format, [125I] ghrelin displacement, human GHSR1a membranes, Ki=IC50/(1+[ligand]/Kd)

T1 sequence (Q92847 whole entry): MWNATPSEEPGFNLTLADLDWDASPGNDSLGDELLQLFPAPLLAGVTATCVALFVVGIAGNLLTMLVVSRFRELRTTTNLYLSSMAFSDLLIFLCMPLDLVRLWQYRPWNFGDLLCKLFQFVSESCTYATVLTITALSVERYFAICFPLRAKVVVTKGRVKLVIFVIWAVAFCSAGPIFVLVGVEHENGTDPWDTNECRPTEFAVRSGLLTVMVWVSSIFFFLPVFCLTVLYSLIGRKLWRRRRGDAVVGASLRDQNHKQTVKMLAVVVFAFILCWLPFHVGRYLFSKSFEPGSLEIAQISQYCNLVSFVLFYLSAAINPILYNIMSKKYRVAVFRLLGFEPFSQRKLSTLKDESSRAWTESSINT

SMILES	IC50 [1] [nM]	Ki [1] [nM]	functional comment [2]	IC50 ([1]; SPA format, [125I] ghrelin displacement, human GHSR1a membranes from HEK293 Tetracycline-Inducible cell line) [nM]	Ki [1, 3] [nM]
Cc1cc(-c2ccc3c(c2)CC[C@H]3N2CC3(CCN(C(=O)Cc4cn5c(C)c(C)sc5n4)CC3)C2)ncn1 [Example 3AR]	33.9	30.3	inverse agonist		
Cc1cc(-c2ccc3c(c2)CC[C@H]3N2CC3(CCN(C(=O)Cc4ccc5c(n4)OCCO5)CC3)C2)ncn1 [Example 3D]	10.2	8.91	inverse agonist		
Cc1nccc(-c2ccc3c(c2)CC[C@H]3N2CC3(CCN(C(=O)Cc4ccc5c(n4)OCCO5)CC3)C2)n1 [Example 3E, 6-(2-{2-[(1R)-5-(2-methylpyrimidin-4-yl)-2,3-dihydro-1H-inden-1-yl]-2,7-diazaspiro[3.5]non-7-yl}-2-oxoethyl)-2,3-dihydro[1,4]dioxino[2,3-b]pyridine]	20.7	18.5	inverse agonist		
Cc1cc(-c2ccc3c(c2)CC[C@H]3N2CC3(CCN(C(=O)Cc4cn5cc(C)sc5n4)CC3)C2)ncn1 [Example 3F]		4.37	inverse agonist	5.02	
COc1ccc(CC(=O)N2CCC3(CC2)CN([C@@H]2CCc4cc(-c5ncccn5)ccc42)C3)nc1 [Example 3G]	21.2		inverse agonist		
COc1ccc(CC(=O)N2CCC3(CC2)CN([C@@H]2CCc4cc(-c5ncc(C)cn5)ccc42)C3)nc1 [Example 3H]	9.51		inverse agonist		9.17
Cc1ccc(CC(=O)N2CCC3(CC2)CN([C@@H]2CCc4cc(-c5ncccn5)ccc42)C3)nc1 [Example 3I]	31		inverse agonist		27.8
Cc1cc(-c2ccc3c(c2)CC[C@H]3N2CC3(CCN(C(=O)Cc4cn5ccccc5n4)CC3)C2)ncn1 [Example 3L]	23	20.2	inverse agonist		
COc1ccc(CC(=O)N2CCC3(CC2)CN([C@@H]2CCc4cc(-c5ccn(C)n5)ccc42)C3)nc1 [Example 3N]	82.6	71.3	inverse agonist		
COc1ccc(CC(=O)N2CCC3(CC2)CN([C@@H]2CCc4cc(-c5nccc(C)n5)ccc42)C3)nc1 [Example 3S]	17.8	15.3	inverse agonist		
Cc1ccnc(-c2ccc3c(c2)CC[C@H]3N2CC3(CCN(C(=O)Cc4ccc5c(n4)OCCO5)CC3)C2)n1 [Example 3U]	8.08	6.9	inverse agonist		
CCc1cnc(-c2ccc3c(c2)CC[C@H]3N2CC3(CCN(C(=O)Cc4ccc(OC)cc4)CC3)C2)nc1 [Example 3W]	17.2	14.8	inverse agonist		
Cc1ccn2cc(CC(=O)N3CCC4(CC3)CN([C@@H]3CCc5cc(-c6ncccn6)ccc53)C4)nc2c1 [Example 3X]	36.6	31.6	inverse agonist		

The next lines start with the values.

IC50 [1] [nM]	Ki [1] [nM]	functional comment [2]	IC50 ([1]; SPA format, [125I] ghrelin displacement, human GHSR1a membranes from HEK293 Tetracycline-Inducible cell line) [nM]	Ki [1, 3] [nM]	SMILES
6.78	6.07	inverse agonist			Cc1cc(-c2ccc3c(c2)CC[C@H]3N2CC3(CCN(C(=O)Cc4cn5nc(C)sc5n4)CC3)C2)ncn1 [Example 3Z, 7-[(2-methylimidazo[2,1-b][1,3,4]thiadiazol-6-yl)acetyl]-2-[(1R)-5-(6-methylpyrimidin-4-yl)-2,3-dihydro-1H-inden-1-yl]-2,7-diazaspiro[3.5]nonane]
11.5	10.4	inverse agonist			CCc1ccc(CC(=O)N2CCC3(CC2)CN([C@@H]2CCc4cc(-c5ncccn5)ccc42)C3)nc1 [Example 5B]
		inverse agonist		10.5	Cc1ccc(CC(=O)N2CCC3(CC2)CN([C@@H]2CCc4cc(-n5nccn5)ccc42)C3)nc1 [Example 5C]
39.9	33	inverse agonist			COc1ccc(CC(=O)N2CCC3(CC2)CN([C@@H]2CCc4cc(-c5cc(C)nc(C)n5)ccc42)C3)nc1 [Example 5G]
37.2	32.4	inverse agonist			Cc1ccn2cc(CC(=O)N3CCC4(CC3)CN([C@@H]3CCc5cc(-n6nccn6)ccc53)C4)nc2c1 [Example 6C]
3.44		inverse agonist		3.32	COc1ccc(CC(=O)N2CCC3(CC2)CN([C@@H]2CCc4cc(-n5nccn5)ccc42)C3)nc1 [Example 6D]
3.77	3.09	inverse agonist			COc1ccc(CC(=O)N2CCC3(CC2)CN([C@@H]2CCc4cc(-n5nccn5)ccc42)C3)cc1 [Example 6E]
6.08	5.18	inverse agonist			Cc1cn2cc(CC(=O)N3CCC4(CC3)CN([C@@H]3CCc5cc(-n6nccn6)ccc53)C4)nc2s1 [Example 6F]
21.7	19.4	inverse agonist			COc1ccc(CC(=O)N2CCC3(CC2)CN([C@@H]2CCc4cc(-n5nccn5)ccc42)C3)c(NC(C)=O)c1 [Example 6H]
22.8	20.2	inverse agonist			Cc1ccn2cc(CC(=O)N3CCC4(CC3)CN([C@@H]3CCc5cc(-c6ccc(C(N)=O)nc6)ccc53)C4)nc2c1 [Example 9F]
9.98	8.86	inverse agonist			NC(=O)c1ccc(-c2ccc3c(c2)CC[C@H]3N2CC3(CCN(C(=O)Cc4ccc(C5CC5)cn4)CC3)C2)cn1 [Example 10E]
15.8	14.2	inverse agonist			Cc1nn2cc(CC(=O)N3CCC4(CC3)CN([C@@H]3CCc5cc(-c6ccc(C(N)=O)nc6)ccc53)C4)nc2s1 [Example 10F]
60.1	53.8	inverse agonist			Cc1ccn2cc(CC(=O)N3CCC4(CC3)CN([C@@H]3CCc5cc(-c6cc(C(N)=O)ncn6)ccc53)C4)nc2c1 [Example 10G]
